Measured values as given in ChEMBL document CHEMBL5131539, “Insights on JAK2 Modulation by Potent, Selective, and Cell-Permeable Pseudokinase-Domain Ligands” (J Med Chem, 2022).
Calls of active or inactive are those of the source. No cut-off for these calls is given here.

Legend:
[1] = target: T1, Tyrosine-protein kinase JAK2 (Homo sapiens, UniProt O60674); experiment: Inhibition of JAK2 JH2 (unknown origin) expressed in baculovirus infected Sf9 cells at 50 uM incubated upto 30 mins in the presence of tracer by competitive fluorescence polarization analysis relative to control
T1 sequence (O60674 whole entry): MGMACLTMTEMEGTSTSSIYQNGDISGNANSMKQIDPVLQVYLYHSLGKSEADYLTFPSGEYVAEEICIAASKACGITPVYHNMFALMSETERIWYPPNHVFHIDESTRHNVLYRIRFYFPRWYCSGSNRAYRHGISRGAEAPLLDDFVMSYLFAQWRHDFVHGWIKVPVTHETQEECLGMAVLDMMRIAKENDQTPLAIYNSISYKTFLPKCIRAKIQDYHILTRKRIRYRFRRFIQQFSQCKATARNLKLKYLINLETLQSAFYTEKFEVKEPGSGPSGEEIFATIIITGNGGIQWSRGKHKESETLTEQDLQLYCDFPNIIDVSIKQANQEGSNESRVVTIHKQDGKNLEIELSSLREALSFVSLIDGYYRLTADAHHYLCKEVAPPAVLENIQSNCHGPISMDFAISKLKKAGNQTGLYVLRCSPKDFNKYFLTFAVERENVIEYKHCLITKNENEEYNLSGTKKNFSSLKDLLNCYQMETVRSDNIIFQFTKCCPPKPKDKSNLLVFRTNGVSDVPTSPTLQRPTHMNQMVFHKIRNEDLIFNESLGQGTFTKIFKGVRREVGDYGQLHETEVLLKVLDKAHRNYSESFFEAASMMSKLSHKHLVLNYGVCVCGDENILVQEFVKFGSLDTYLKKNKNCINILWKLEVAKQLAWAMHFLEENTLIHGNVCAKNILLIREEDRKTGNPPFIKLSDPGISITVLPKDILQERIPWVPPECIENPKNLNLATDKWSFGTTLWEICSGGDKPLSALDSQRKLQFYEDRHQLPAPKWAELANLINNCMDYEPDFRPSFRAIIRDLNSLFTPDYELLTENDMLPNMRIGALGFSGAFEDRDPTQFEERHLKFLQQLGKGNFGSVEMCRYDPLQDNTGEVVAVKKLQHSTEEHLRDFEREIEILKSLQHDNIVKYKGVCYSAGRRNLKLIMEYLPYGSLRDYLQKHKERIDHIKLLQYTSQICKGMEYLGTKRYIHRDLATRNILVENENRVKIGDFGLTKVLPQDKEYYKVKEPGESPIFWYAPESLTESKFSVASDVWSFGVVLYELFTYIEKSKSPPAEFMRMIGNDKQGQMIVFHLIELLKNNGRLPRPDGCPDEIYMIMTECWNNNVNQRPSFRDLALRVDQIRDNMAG

[2] = target: T1, Tyrosine-protein kinase JAK2; experiment: biochemical
Description: Binding affinity to JAK2 JH2 (unknown origin) expressed in baculovirus infected Sf9 cells assessed as dissociation constant measured upto 30 mins in presence of tracer by competitive fluorescence polarization assay

[3] = pampa, pH 7.4, 18 h
Description: Permeability of the compound in PBS buffer at pH 7.4 measured after 18 hrs by UV plate reader based PAMPA assay

[4] = target: T1, Tyrosine-protein kinase JAK2; experiment: biochemical; remark: listed apart in the source
Description: Binding affinity to wild type JAK2 JH1 (unknown origin) expressed in baculovirus infected Sf9 cells assessed as dissociation constant measured upto 30 mins in presence of tracer by competitive fluorescence polarization assay

[5] = target: Tyrosine-protein kinase JAK2 (Homo sapiens, UniProt O60674, V617F); experiment: biochemical
Tyrosine-protein kinase JAK2 (Homo sapiens, UniProt O60674, V617F), sequence (O60674 whole entry V617F): as the sequence (O60674 whole entry) above, with V617F counted along it
Description: Binding affinity to JAK2 JH2 V617F mutant (unknown origin) expressed in baculovirus infected Sf9 cells assessed as dissociation constant measured upto 30 mins in presence of tracer by competitive fluorescence polarization assay

[6] = system: Tyrosine-protein kinase JAK2 (Homo sapiens), O60674 [V617F]; experiment: Inhibition of JAK2 JH2 V617F mutant in human HEL cells assessed as reduction in STAT5 phosphorylation at 20 uM measured after 3 hrs by Western blotting analysis; assay type: cell-based
Tyrosine-protein kinase JAK2 (Homo sapiens), O60674 [V617F], sequence (O60674 whole entry V617F): as the sequence (O60674 whole entry) above, with V617F counted along it

[7] = system: Tyrosine-protein kinase JAK2 (Homo sapiens), O60674 [V617F]; experiment: Inhibition of JAK2 JH2 V617F mutant in human HEL cells assessed as reduction in STAT5 phosphorylation at 10 to 20 uM incubated for 1 hrs by Western blotting analysis; assay type: cell-based; conditions: dose 10-20 µM
[8] = target: T1, Tyrosine-protein kinase JAK2; experiment: Inhibition of wild type JAK2 JH2 in human TF-1 cells assessed as reduction in STAT5 phosphorylation at 10 to 20 uM incubated for 1 hrs by Western blotting analysis; assay type: cell-based; conditions: dose 10-20 µM

Nc1nc(Nc2ccc(S(N)(=O)=O)cc2)nn1C(=O)Nc1ccc(-c2ccccc2)cc1
inhibition [1]: 30.5%

Nc1nc(Nc2ccc(S(N)(=O)=O)cc2)nn1C(=O)Nc1ccc(-c2cncc(C(=O)O)c2)cc1
Kd [2]: 652 nM

CNC(=O)c1ccc(Nc2nc(N)n(C(=O)Nc3ccc(-c4cc(OCc5ccccc5)cc(C(=O)O)c4)cc3)n2)cc1
permeability [3]: 0.971 10^-6 cm/s | Kd [2]: 44 nM | Kd [4]: 5910 nM | Kd [5]: 50 nM

COC(=O)c1cccc(-c2ccc(NC(=O)n3nc(Nc4ccc(S(N)(=O)=O)cc4)nc3N)cc2)c1
inhibition [1]: 27% | permeability [3]: 0.09 10^-6 cm/s

Nc1nc(Nc2ccc(S(N)(=O)=O)cc2)nn1C(=O)Nc1ccc(-c2ccc(C(=O)O)cc2)cc1
Kd [2]: 155 nM

Nc1nc(Nc2ccc(S(N)(=O)=O)cc2)nn1C(=O)Nc1ccc(-c2cccc(C(=O)O)n2)cc1
Kd [2]: 934 nM

Nc1nc(Nc2ccc(S(N)(=O)=O)cc2)nn1C(=O)Nc1ccc(-c2cccc(C(=O)O)c2)cc1
permeability [3]: 0.015 10^-6 cm/s | Kd [2]: 129 nM

Nc1nc(Nc2ccc(S(N)(=O)=O)cc2)nn1C(=O)Nc1ccc(-c2cncc(C(=O)O)n2)cc1
Kd [2]: 1400 nM

Nc1nc(Nc2ccc(S(N)(=O)=O)cc2)nn1C(=O)Nc1ccc(-c2ccnc(C(=O)O)c2)cc1
Kd [2]: 394 nM | Kd [4]: 8100 nM | Kd [5]: 131 nM

Nc1nc(Nc2ccc(S(N)(=O)=O)cc2)nn1C(=O)Nc1ccc(-c2cc(OCc3ccccc3)cc(C(=O)O)c2)cc1
permeability [3]: 1.15 10^-6 cm/s | Kd [2]: 75 nM | Kd [4]: 3360 nM | Kd [5]: 62 nM

CNC(=O)c1ccc(Nc2nc(N)n(C(=O)Nc3ccc(-c4ccc(OCc5ccccc5)c(C(=O)O)c4)cc3)n2)cc1
inhibition [6]: Active | inhibition [7]: Active | inhibition [8]: Active | permeability [3]: 0.24 10^-6 cm/s | Kd [4]: 6810 nM | Kd [5]: 43 nM
